Source: patent US20070219248A1, “Salt of Oxalic Acid with -[4[2-(N-Methyl-N-(2-Pyridyl)-Amino)Ethoxy]Benzyl]Thiazolidin-2,4- Dione and a Method of its Preparation and its Use” (priority 2004, published 2007)
Entries after “also recorded” stand apart in the source; their conditions may differ. Structures can show the parent of a compound that is named as a salt.

Tests used:
[1] = Solubility in water and aqueous hydrochloric acid, stated only in words; type: physicochemical; conditions: crystalline form
[2] = Solubility of rosiglitazone salts in 0.1 M hydrochloric acid (Example 7); type: physicochemical; conditions: 1 g salt
Excerpt: Contrary to some other salts of rosiglitazone, the above-described crystalline salt of formula III is well soluble in water and in aqueous solutions of hydrochloric acid. Especially the solubility in solutions of hydrochloric acid is very important considering the acidobasic conditions in the digestive system (especially in the stomach). It offers indication of the solubility of the substance after it is digested, which is a very important factor for evaluating pharmaceutical effectiveness of the substance. A comparison of the solubility of the salt of the compound of formula III in acidic environment with some of several other rosiglitazone salts is documented in Example 7. […] However, neither the same amount of rosiglitazone hydrochloride prepared according to WO 2000/063205 nor the same amount of pharmaceutically used rosiglitazone maleate of formula II prepared according to WO 94/05659 could be dissolved under the same conditions.
Solubility was determined for crystalline rosiglitazone oxalate of chemical formula III, which was prepared by the procedure according to Example 1. 1 g of crystalline salt of formula III was dissolved under stirring and at 25° C. in 20, 30, 35 a 40 ml of a 0.1M solution of hydrochloric acid. The mixture was stirred at 25° C. for five minutes. When using 20 and 30 ml of the solvent, there was obtained no solution.

| SMILES | Solubility in water and in aqueous solutions of hydrochloric acid [1] | Dissolution of 1 g of salt in 20 ml of solvent ([2]; 20 ml 0.1M hydrochloric acid, 25° C., stirred five minutes) | Dissolution of 1 g of salt in 30 ml of solvent ([2]; 30 ml 0.1M hydrochloric acid, 25° C., stirred five minutes) | Dissolution of 1 g of salt in 35 ml of solvent ([2]; 35 ml 0.1M hydrochloric acid, 25° C., stirred five minutes) | Dissolution of 1 g of salt in 40 ml of solvent ([2]; 40 ml 0.1M hydrochloric acid, 25° C., stirred five minutes) | Dissolution of the same amount (1 g) at the same conditions ([2]; 20 to 40 ml 0.1M hydrochloric acid, 25° C., stirred five minutes) | Dissolution after extension of the time and another dilution ([2]; extended dissolution time, further dilution with 0.1 M hydrochloric acid) |
| --- | --- | --- | --- | --- | --- | --- | --- |
| CN(CCOc1ccc(CC2SC(=O)NC2=O)cc1)c1ccccn1 (stereo not shown) [III] | well soluble | no solution | no solution | cloudy solution | completely dissolved; also recorded: no cloudy solution | – | – |
| CN(CCOc1ccc(CC2SC(=O)NC2=O)cc1)c1ccccn1 (stereo not shown) [rosiglitazone maleate, reference compound] | – | – | – | – | – | neither dissolving | No solutions could be obtained |
